Laboratory results: patent US11629136B1, “Substituted pyridine derivatives as SARM1 inhibitors” (Nura Bio, Inc., priority 2021, dated 2023)
pIC50: −log10 of the molar value. Counter-ions that a name gives are not always drawn.

These molecules were tested against human SARM1(50-724) (Homo sapiens (Human), UniProt Q6SZW1) (assay: SARM1 NAD hydrolase biological assay (HPLC readout of NAD and NAM peak areas)). Settings: not given.
Format: biochemical
Description: The reaction was incubated at room temperature for 60 minutes and quenched with 20 μL of 0.4% formic acid. […] Total run time for each sample was 4 minutes. The run was isocratic with 1.5% methanol in 40 mM ammonium acetate pH 6.0. Samples were run at a flow rate of 0.8 ml/min at 55° C. Peak areas of NAD and NAM were determined using OpenLAB CDS (Chem Station edition) software. For dose-response, the compound was diluted serially 1:3 in DMSO and added to the reaction starting at a final compound concentration of 100 μM in 1% DMSO.

human SARM1(50-724), sequence (Q6SZW1 50-724): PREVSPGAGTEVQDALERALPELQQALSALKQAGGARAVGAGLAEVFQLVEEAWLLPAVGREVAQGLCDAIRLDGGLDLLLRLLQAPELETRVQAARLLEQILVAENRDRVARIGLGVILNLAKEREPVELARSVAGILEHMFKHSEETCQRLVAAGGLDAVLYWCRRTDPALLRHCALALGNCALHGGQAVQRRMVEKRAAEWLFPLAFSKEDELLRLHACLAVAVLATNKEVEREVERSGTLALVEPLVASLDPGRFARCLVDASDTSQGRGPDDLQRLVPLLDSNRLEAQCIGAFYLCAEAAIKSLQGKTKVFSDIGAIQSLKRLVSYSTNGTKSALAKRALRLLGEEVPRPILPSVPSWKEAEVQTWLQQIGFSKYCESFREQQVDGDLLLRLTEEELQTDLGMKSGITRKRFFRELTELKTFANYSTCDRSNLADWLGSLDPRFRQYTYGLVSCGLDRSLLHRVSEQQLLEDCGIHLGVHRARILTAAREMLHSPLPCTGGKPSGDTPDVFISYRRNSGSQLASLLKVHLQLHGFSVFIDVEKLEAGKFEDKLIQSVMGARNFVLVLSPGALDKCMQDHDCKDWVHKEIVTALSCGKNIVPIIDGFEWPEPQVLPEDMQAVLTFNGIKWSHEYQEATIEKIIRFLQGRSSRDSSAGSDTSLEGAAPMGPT

**Q.** With N#CCCc1nc(Cc2ccncc2)c[nH]1 [Example 4, 3-(4-(Pyridin-4-ylmethyl)-1H-imidazol-2-yl)propanenitrile] as the molecule, how does the pIC50 read?
**A.** 5.00 to 6.00

Same assay, conditions: 40 nM human SARM1(50-724), 0.3 mM NMN, 20 μM NAD, 60 minutes at room temperature; class symbols; read-out: Average IC50

**Q.** ON=C(c1ncc(Cc2ccncc2)[nH]1)C(F)(F)F (mixture of isomers) [Example 13, (E/Z)-2,2,2-Trifluoro-1-(5-(pyridin-4-ylmethyl)-1H-imidazol-2-yl)ethan-1-one oxime] was tested. Which pIC50 did it give?
**A.** 5.00 to 6.00

**Q.** With CC(c1ccncc1)c1c[nH]c(CC(F)(F)F)n1 (racemic) [Example 5, (rac)-4-(1-(2-(2,2,2-Trifluoroethyl)-1H-imidazol-4-yl)ethyl)pyridine] as the molecule, how does the pIC50 read?
**A.** > 6.00

**Q.** With CC(c1ccncc1)c1ccc(CC(F)(F)F)[nH]1 (racemic) [Example 11, (rac)-4-(1-(5-(2,2,2-Trifluoroethyl)-1H-pyrrol-2-yl)ethyl)pyridine] as the molecule, how does the pIC50 read?
**A.** 5.00 to 6.00

**Q.** With Cc1cnccc1Cc1c[nH]c(C(O)c2cncs2)n1 (racemic) [Example 21, (rac)-(5-((3-Methylpyridin-4-yl)methyl)-1H-imidazol-2-yl)(thiazol-5-yl)methanol] as the molecule, how does the pIC50 read?
**A.** 4.00 to 5.00

**Q.** How did the pIC50 turn out when OC(c1nc(Cc2ccncc2Cl)c[nH]1)C(F)(F)F (racemic) [Example 23, (rac)-1-(4-((3-Chloropyridin-4-yl)methyl)-1H-imidazol-2-yl)-2,2,2-trifluoroethan-1-ol] was run?
**A.** > 6.00

**Q.** With OC(c1ccccn1)c1ncc(Cc2ccncc2)[nH]1 (racemic) [Example 35, (rac)-Pyridin-2-yl(5-(pyridin-4-ylmethyl)-1H-imidazol-2-yl)methanol] as the molecule, how does the pIC50 read?
**A.** 5.00 to 6.00

**Q.** CC(O)(c1nc(Cc2ccncc2)c[nH]1)C(F)(F)F (racemic) [Example 40, (rac)-1,1,1-Trifluoro-2-(4-(pyridin-4-ylmethyl)-1H-imidazol-2-yl)propan-2-ol] was tested. Which pIC50 did it give?
**A.** 5.00 to 6.00

**Q.** C[C@@H](c1ccncc1)c1c[nH]c(CC(F)(F)F)n1 (single isomer, unassigned) [Example 5a] was tested. Which pIC50 did it give?
**A.** > 6.00

**Q.** How did the pIC50 turn out when C[C@H](c1ccncc1)c1c[nH]c(CC(F)(F)F)n1 (single isomer, unassigned) [Example 5b] was run?
**A.** 5.00 to 6.00

**Q.** With O[C@@H](c1ncc(Cc2ccncc2)[nH]1)C(F)(F)F (single isomer, unassigned) [Example 7] as the molecule, how does the pIC50 read?
**A.** > 6.00

**Q.** With O[C@H](c1ncc(Cc2ccncc2)[nH]1)C(F)(F)F (single isomer, unassigned) [Example 7a] as the molecule, how does the pIC50 read?
**A.** > 6.00

**Q.** NC(c1nc(Cc2ccncc2)c[nH]1)C(F)(F)F (single isomer, unassigned) [Example 15] was tested. Which pIC50 did it give?
**A.** 5.00 to 6.00

**Q.** N[C@H](c1nc(Cc2ccncc2)c[nH]1)C(F)(F)F (single isomer, unassigned) [Example 15a] was tested. Which pIC50 did it give?
**A.** > 6.00

**Q.** With CNC(c1ncc(Cc2ccncc2)[nH]1)C(F)(F)F (single isomer, unassigned) [Example 16] as the molecule, how does the pIC50 read?
**A.** 5.00 to 6.00

**Q.** CN[C@H](c1ncc(Cc2ccncc2)[nH]1)C(F)(F)F (single isomer, unassigned) [Example 16a] was tested. Which pIC50 did it give?
**A.** 5.00 to 6.00

**Q.** How did the pIC50 turn out when CN(C)C(c1ncc(Cc2ccncc2)[nH]1)C(F)(F)F (single isomer, unassigned) [Example 17] was run?
**A.** 4.00 to 5.00

**Q.** With CN(C)[C@H](c1ncc(Cc2ccncc2)[nH]1)C(F)(F)F (single isomer, unassigned) [Example 17a] as the molecule, how does the pIC50 read?
**A.** 5.00 to 6.00

**Q.** How did the pIC50 turn out when NC(c1nc(Cc2ccncc2)cs1)C(F)(F)F (single isomer, unassigned) [Example 19] was run?
**A.** 4.00 to 5.00

**Q.** With OC(c1nc(Cc2ccncc2)c[nH]1)c1cncs1 (single isomer, unassigned) [Example 20] as the molecule, how does the pIC50 read?
**A.** 5.00 to 6.00

**Q.** With O[C@H](c1nc(Cc2ccncc2)c[nH]1)c1cncs1 (single isomer, unassigned) [Example 20a] as the molecule, how does the pIC50 read?
**A.** > 6.00

**Q.** How did the pIC50 turn out when C[C@@H](c1ccncc1)c1c[nH]c([C@H](O)C(F)(F)F)n1 (single isomer, unassigned) [Example 24] was run?
**A.** > 6.00

**Q.** How did the pIC50 turn out when C[C@H](c1ccncc1)c1c[nH]c([C@@H](O)C(F)(F)F)n1 (single isomer, unassigned) [Example 24a] was run?
**A.** 4.00 to 5.00

**Q.** C[C@H](c1ccncc1)c1c[nH]c([C@H](O)C(F)(F)F)n1 (single isomer, unassigned) [Example 24b] was tested. Which pIC50 did it give?
**A.** > 6.00

**Q.** How did the pIC50 turn out when OC(c1ncc(Cc2ccncc2)[nH]1)(c1cncs1)C(F)(F)F (single isomer, unassigned) [Example 26] was run?
**A.** 4.00 to 5.00

**Q.** With O[C@](c1ncc(Cc2ccncc2)[nH]1)(c1cncs1)C(F)(F)F (single isomer, unassigned) [Example 26a] as the molecule, how does the pIC50 read?
**A.** > 6.00

**Q.** How did the pIC50 turn out when Cc1cnccc1Cc1cnc([C@H](O)c2cncs2)[nH]1 (single isomer, unassigned) [Example 30] was run?
**A.** 4.00 to 5.00

**Q.** How did the pIC50 turn out when Cc1cnccc1Cc1cnc([C@@H](O)c2cncs2)[nH]1 (single isomer, unassigned) [Example 30a] was run?
**A.** 5.00 to 6.00

**Q.** O[C@@H](c1ncc(Cc2ccncc2)[nH]1)c1nccs1 (single isomer, unassigned) [Example 31a] was tested. Which pIC50 did it give?
**A.** 5.00 to 6.00

**Q.** C[C@@](O)(c1ncc(Cc2ccncc2)[nH]1)C(F)(F)F (single isomer, unassigned) [Example 32] was tested. Which pIC50 did it give?
**A.** > 6.00

**Q.** C[C@](O)(c1ncc(Cc2ccncc2)[nH]1)C(F)(F)F (single isomer, unassigned) [Example 32a] was tested. Which pIC50 did it give?
**A.** 5.00 to 6.00

**Q.** How did the pIC50 turn out when CO[C@@H](c1ncc(Cc2ccncc2)[nH]1)C(F)(F)F (single isomer, unassigned) [Example 33] was run?
**A.** 5.00 to 6.00

**Q.** With COC(c1ncc(Cc2ccncc2)[nH]1)C(F)(F)F (single isomer, unassigned) [Example 33a] as the molecule, how does the pIC50 read?
**A.** 5.00 to 6.00

**Q.** Cc1cnccc1Cc1c[nH]c(C(O)C(F)(F)F)n1 (single isomer, unassigned) [Example 37] was tested. Which pIC50 did it give?
**A.** 5.00 to 6.00

**Q.** With Cc1cnccc1Cc1c[nH]c([C@@H](O)C(F)(F)F)n1 (single isomer, unassigned) [Example 37a] as the molecule, how does the pIC50 read?
**A.** > 6.00

**Q.** O[C@@H](c1nc(Cc2ccncc2F)c[nH]1)C(F)(F)F (single isomer, unassigned) [Example 38] was tested. Which pIC50 did it give?
**A.** > 6.00

**Q.** How did the pIC50 turn out when O[C@H](c1nc(Cc2ccncc2F)c[nH]1)C(F)(F)F (single isomer, unassigned) [Example 38a] was run?
**A.** 5.00 to 6.00

**Q.** How did the pIC50 turn out when FC(F)(F)Cc1nc(Cc2ccncc2)c[nH]1 [Example 1, 4-((2-(2,2,2-Trifluoroethyl)-1H-imidazol-4-yl)methyl)pyridine] was run?
**A.** > 6.00

**Q.** FC(F)(F)CCc1nc(Cc2ccncc2)c[nH]1 [Example 2, 4-((2-(3,3,3-trifluoropropyl)-1H-imidazol-4-yl)methyl)pyridine] was tested. Which pIC50 did it give?
**A.** 5.00 to 6.00

**Q.** N#CCc1nc(Cc2ccncc2)c[nH]1 [Example 3, 2-(4-(Pyridin-4-ylmethyl)-1H-imidazol-2-yl)acetonitrile] was tested. Which pIC50 did it give?
**A.** > 6.00

**Q.** c1cc(Cc2c[nH]c(Cc3cncs3)n2)ccn1 [Example 6, 5-((4-(Pyridin-4-ylmethyl)-1H-imidazol-2-yl)methyl)thiazole] was tested. Which pIC50 did it give?
**A.** > 6.00

**Q.** FC(F)(F)Cc1nc(Cc2ccncc2)n[nH]1 [Example 8, 4-((5-(2,2,2-Trifluoroethyl)-1H-1,2,4-triazol-3-yl)methyl)pyridine] was tested. Which pIC50 did it give?
**A.** 4.00 to 5.00

**Q.** With FC(F)(F)Cc1csc(Cc2ccncc2)n1 [Example 9, 2-(Pyridin-4-ylmethyl)-4-(2,2,2-trifluoroethyl)thiazole] as the molecule, how does the pIC50 read?
**A.** 5.00 to 6.00

**Q.** FC(F)(F)Cc1nc(Cc2ccncc2)cs1 [Example 10, 4-(Pyridin-4-ylmethyl)-2-(2,2,2-trifluoroethyl)thiazole] was tested. Which pIC50 did it give?
**A.** 5.00 to 6.00

**Q.** With O=C(c1ncc(Cc2ccncc2)[nH]1)C(F)(F)F [Example 12, 2,2,2-Trifluoro-1-(5-(pyridin-4-ylmethyl)-1H-imidazol-2-yl)ethan-1-one hydrochloride] as the molecule, how does the pIC50 read?
**A.** > 6.00

**Q.** Cc1[nH]c(CC(F)(F)F)nc1Cc1ccncc1 [Example 14, 4-((5-Methyl-2-(2,2,2-trifluoroethyl)-1H-imidazol-4-yl)methyl)pyridine] was tested. Which pIC50 did it give?
**A.** 4.00 to 5.00

**Q.** How did the pIC50 turn out when N[C@@H](c1nc(Cc2ccncc2)cs1)C(F)(F)F [Example 19a] was run?
**A.** 5.00 to 6.00

**Q.** With FC(F)(F)Cc1ncc(Cc2c(Cl)cncc2Cl)[nH]1 [Example 22, 3,5-Dichloro-4-((2-(2,2,2-trifluoroethyl)-1H-imidazol-5-yl)methyl)pyridine] as the molecule, how does the pIC50 read?
**A.** 4.00 to 5.00

**Q.** How did the pIC50 turn out when Cc1cnccc1Cc1c[nH]c(CC(F)(F)F)n1 [Example 25, 3-Methyl-4-((2-(2,2,2-trifluoroethyl)-1H-imidazol-4-yl)methyl)pyridine] was run?
**A.** > 6.00

**Q.** FC(F)(F)Cc1nc(Cc2ccncc2Cl)c[nH]1 [Example 27, 3-Chloro-4-((2-(2,2,2-trifluoroethyl)-1H-imidazol-4-yl)methyl)pyridine] was tested. Which pIC50 did it give?
**A.** > 6.00

Same assay, conditions: 40 nM human SARM1(50-724), 0.3 mM NMN, 20 μM NAD, 60 minutes at room temperature; given as numeric bound; read-out: Average IC50

**Q.** With ON=C(c1nc(Cc2ccncc2)cs1)C(F)(F)F (mixture of isomers) [Example 18, (E/Z)-2,2,2-Trifluoro-1-(4-(pyridin-4-ylmethyl)thiazol-2-yl)ethan-1-one oxime] as the molecule, how does the pIC50 read?
**A.** < 4.00

**Q.** How did the pIC50 turn out when C[C@@H](c1ccncc1)c1c[nH]c([C@@H](O)C(F)(F)F)n1 (single isomer, unassigned) [Example 24c] was run?
**A.** < 4.30

**Q.** How did the pIC50 turn out when O[C@H](c1ncc(Cc2ccncc2)[nH]1)c1nccs1 (single isomer, unassigned) [Example 31] was run?
**A.** < 4.30

**Q.** With O[C@H](c1ncc(Cc2ccnc(F)c2)[nH]1)C(F)(F)F (single isomer, unassigned) [Example 34] as the molecule, how does the pIC50 read?
**A.** < 4.00

**Q.** O[C@@H](c1ncc(Cc2ccnc(F)c2)[nH]1)C(F)(F)F (single isomer, unassigned) [Example 34a] was tested. Which pIC50 did it give?
**A.** < 4.00

**Q.** How did the pIC50 turn out when FC(F)(F)Cc1nc(Cc2ccnc(Cl)c2)c[nH]1 [Example 28, 2-Chloro-4-((2-(2,2,2-trifluoroethyl)-1H-imidazol-4-yl)methyl)pyridine] was run?
**A.** < 4.30

**Q.** Fc1cc(Cc2c[nH]c(CC(F)(F)F)n2)ccn1 [Example 29, 2-Fluoro-4-((2-(2,2,2-trifluoroethyl)-3H-imidazol-4-yl)methyl)pyridine] was tested. Which pIC50 did it give?
**A.** < 4.30
